Data published in patent publication US20130315843A1, “COMPOSITION FOR REDUCTION OF TRPA1 AND TRPV1 SENSATIONS” (priority 2012, published 2013).
Several values for one entry are separate records, joined by “and”; a condition that tells them apart may be missing. Identical values can stand only once. Like-named read-outs stand apart in the source and are kept apart here.

What was measured:
human TRPA1 = human TRPA1 (Homo sapiens, UniProt O75762); assay: FLIPR intracellular Ca2+ assay, direct (agonist) effect on TRPA1; assay type: cell-based; design: expressed in transfected cells; conditions: for percent hydrogen peroxide activation of TRPA1 compared to control agonist: control 50 μM AITC
Sequence of human TRPA1 (O75762 whole entry): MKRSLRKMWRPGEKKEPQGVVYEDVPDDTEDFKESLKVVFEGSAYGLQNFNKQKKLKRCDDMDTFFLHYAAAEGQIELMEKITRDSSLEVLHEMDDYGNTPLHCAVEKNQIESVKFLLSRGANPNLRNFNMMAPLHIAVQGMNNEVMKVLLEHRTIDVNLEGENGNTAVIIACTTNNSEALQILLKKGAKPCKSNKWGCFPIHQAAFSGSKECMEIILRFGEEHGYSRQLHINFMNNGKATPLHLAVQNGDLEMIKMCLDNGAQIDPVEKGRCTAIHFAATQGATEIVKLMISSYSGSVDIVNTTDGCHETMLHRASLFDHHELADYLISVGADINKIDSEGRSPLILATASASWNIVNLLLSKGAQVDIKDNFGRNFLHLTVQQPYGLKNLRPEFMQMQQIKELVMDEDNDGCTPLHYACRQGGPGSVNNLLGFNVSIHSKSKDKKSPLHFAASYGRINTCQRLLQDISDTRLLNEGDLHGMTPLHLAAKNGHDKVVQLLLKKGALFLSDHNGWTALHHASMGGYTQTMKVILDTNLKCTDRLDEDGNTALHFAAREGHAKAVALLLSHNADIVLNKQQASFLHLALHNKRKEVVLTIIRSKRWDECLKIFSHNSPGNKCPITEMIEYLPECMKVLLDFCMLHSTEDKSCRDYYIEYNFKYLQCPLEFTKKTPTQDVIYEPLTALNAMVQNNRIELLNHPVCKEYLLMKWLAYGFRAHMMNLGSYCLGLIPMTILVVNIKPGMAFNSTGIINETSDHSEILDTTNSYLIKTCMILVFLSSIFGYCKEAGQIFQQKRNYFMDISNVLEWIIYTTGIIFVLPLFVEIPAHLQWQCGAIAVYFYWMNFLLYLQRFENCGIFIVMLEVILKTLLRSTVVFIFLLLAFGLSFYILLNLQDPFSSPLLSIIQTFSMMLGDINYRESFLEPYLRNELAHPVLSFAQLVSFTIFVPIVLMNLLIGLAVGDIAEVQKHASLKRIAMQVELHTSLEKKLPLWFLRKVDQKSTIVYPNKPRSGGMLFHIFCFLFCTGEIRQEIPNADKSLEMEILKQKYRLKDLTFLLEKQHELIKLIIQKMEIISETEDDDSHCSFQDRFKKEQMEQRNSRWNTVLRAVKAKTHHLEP
Procedure: After centrifugation, a pellet of cells was formed in the bottom of the tube separating them from the supernatant solution.
(§1) The pelleted cells were re-suspended in 10 ml assay buffer and 90 μl aliquots (˜50,000 cells) per well delivered to a 96-well assay plate containing 10 μl of test compounds (1 mM in assay buffer, final concentration 100 μM) or buffer control and incubated at room temperature for 30 minutes.

human TRPV1 [1] = molecular target: T1, human TRPV1 (Homo sapiens, UniProt Q8NER1); conditions: for percent hydrogen peroxide activation of TRPV1 compared to control agonist: control 350 nM capsaicin
T1 sequence (Q8NER1 whole entry): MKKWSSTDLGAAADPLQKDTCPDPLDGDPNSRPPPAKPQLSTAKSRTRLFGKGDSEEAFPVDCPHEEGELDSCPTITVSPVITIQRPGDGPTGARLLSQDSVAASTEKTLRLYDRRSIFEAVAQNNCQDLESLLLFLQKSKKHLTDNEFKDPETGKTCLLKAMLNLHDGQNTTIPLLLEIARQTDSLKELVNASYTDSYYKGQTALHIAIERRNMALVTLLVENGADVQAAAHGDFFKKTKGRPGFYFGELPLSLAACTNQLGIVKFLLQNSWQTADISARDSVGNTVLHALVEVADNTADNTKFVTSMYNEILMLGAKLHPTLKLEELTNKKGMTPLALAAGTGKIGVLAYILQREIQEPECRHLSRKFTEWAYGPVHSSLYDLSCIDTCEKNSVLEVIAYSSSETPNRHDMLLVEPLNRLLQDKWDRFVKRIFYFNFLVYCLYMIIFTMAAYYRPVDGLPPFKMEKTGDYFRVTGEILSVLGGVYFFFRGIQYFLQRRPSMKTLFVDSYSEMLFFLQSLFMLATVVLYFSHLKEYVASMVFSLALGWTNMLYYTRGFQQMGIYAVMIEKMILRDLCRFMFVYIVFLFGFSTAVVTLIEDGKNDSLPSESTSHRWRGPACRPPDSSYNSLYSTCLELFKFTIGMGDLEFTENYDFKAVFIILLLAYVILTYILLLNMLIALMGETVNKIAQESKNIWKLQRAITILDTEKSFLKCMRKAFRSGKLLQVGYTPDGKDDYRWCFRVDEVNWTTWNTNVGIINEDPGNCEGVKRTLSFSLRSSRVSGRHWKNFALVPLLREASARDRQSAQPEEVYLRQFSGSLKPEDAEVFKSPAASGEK
Procedure: (§2) Cells were detached with addition of 10 ml of PBS (phosphate buffered saline) by hand shaking gently. Cells were transferred to a 50 ml tube and centrifuged at 850 rpm for 3 minutes to remove PBS.
as §1

human TRPV1 [2] = molecular target: T1, human TRPV1; assay: FLIPR Ca2+ assay, reduction of hydrogen peroxide activation of TRPV1; assay type: cell-based; design: expressed in transfected cells; conditions: for Ca++ counts: with compound
human TRPV1 [3] = molecular target: T1, human TRPV1; assay: FLIPR Ca2+ assay, reduction of capsaicin activation of TRPV1; assay type: cell-based; design: expressed in transfected cells; conditions: for Ca++ counts: with compound
Procedure: as §2
The pelleted cells were re-suspended in 10 ml assay buffer and 90 μl aliquots (˜50,000 cells) per well delivered to a 96-well assay plate containing 10 μl of test compounds ([…]) or buffer control and incubated at room temperature for 30 minutes.

[4] = Trained sensory panel, burning and numbing sensation after hydrogen peroxide mouthwash; assay type: in vivo, human; design: key to Burning Sensation: 0 = no sensation, 60 = highest intensity sensation; conditions: scale 0-60
Procedure: (§3) For EXAMPLES 6 and 7 sensory evaluation studies of menthol and hydrogen peroxide activity were conducted using a methodology patterned after the techniques described in M. C. Meilgaard, et al., Sensory Evaluation Techniques, 4th Ed. (2007). In one study, a panel of 8-15 trained sensory experts evaluated the menthol or peroxide sensations experienced after brushing with a dentifrice containing the menthol or hydrogen peroxide and the respective TRPA1 or TRPV1 antagonists. Panelists brushed teeth with 1.5 grams of a dentifrice (containing coolant) or control (no coolant) and then expectorated. After brush expectoration, panelists evaluated the burn intensity, assigning a number between 0 (no burning) to 60 ([…]). After rinse expectoration, panelists evaluated burning intensity according to the same 0 to 60 scale. Evaluations were conducted at 5, 15, 30, 45, 60 minute, etc. time points. At each evaluation, panelists were instructed to breathe in through pursed lips and evaluate overall burning sensation. In this test, a numerical score difference from the control of 7.5 indicates user significant differences or definite reduction in burning at the specified time point. Measures between 4.0 to 7.5 indicate a noticeable trend in the specified parameter, which is not statistically significant, but noticeable.
For EXAMPLE 7, a panel of 10 trained sensory experts evaluated the sensory profile experienced after rinsing with 30 grams of a test mouthwash (containing hydrogen peroxide and TRPA1 or TRPV1 antagonist) or control (containing hydrogen peroxide and no TRPA1 or TRPV1 antagonist) for 30 seconds and then expectorated. After expectoration, panelists evaluated the sensorial profile (cooling, warming, burning, numbing, and astringency), assigning a number between 0 (no sensation) to 60 (highest intensity sensation). Evaluations were conducted at 2.5, 5, 10, 20, and 30 minute time points, following expectoration at each evaluation, panelists were instructed to breathe in through pursed lips and evaluate overall burning or numbing sensation. The hydrogen peroxide containing mouthwash formulations are shown below in TABLE 11. The mouthwash samples tested comprised a control having the components listed in TABLE 11 by weight % of the composition or the control formulation plus TRPA1 or TRPV1 antagonist, as shown in TABLE 12. The mouthwashes were made using conventional methods and are shown below with amounts in weight % of total composition.

[5] = Headspace GC reduction of 1-propanethiol by protectant (Michael Acceptor) compounds; conditions: for Percent Thiol Reduction vs. Control: 0.1% SLS
Procedure: For EXAMPLES 11 and 12 a 0.1% sodium lauryl sulfate (SLS) aqueous solution was prepared to contain either 1 ppm or 10 ppm of 1-propanethiol. SLS solution was added to the sample and control solutions to assist in solubilization of the more hydrophobic compounds. Control solutions contained surfactant and 1-propanethiol, while sample solutions contained these components plus a protectant compound added at either 0.01% or 0.05%. 100 μL aliquots of control or test solutions were aliquotted into a 22 mL headspace vial, vortexed for 30 seconds, and incubated for 30 minutes at 60 C in an oven. After that period, 1 mL of head space was sampled and injected into an Agilent 7890 gas chromatograph equipped with a sulfur chemiluminescence detector (GC-SCD). Peak areas of the 1-propanethiol control sample (no protectant compound added) were established by triplicate injection of the control sample. The area of the propanethiol peak produced from samples containing selected protectant molecules were then determined and ratioed to the 1-propanethiol control peak area, subtracted from 1, and multiplied by 100 to calculate percent reduction of the thiol peak, thus indicating the effectiveness of each protectant at reducing the level of thiol.
The samples in TABLE 17 were prepared by combining 1 ppm 1-propanethiol with 0.1% sodium lauryl sulfate with 1% of the test compounds. The volatile sulfurs were measured with headspace GC/MS using a SPEME column to capture the volatile sulfur.
The samples in TABLE 18 were prepared by combining either 1 or 10 ppm 1-propanethiol with 0.1% sodium lauryl sulfate with either 0.01% or 0.05% of the test compounds.

[6] = Trained sensory panel, burn sensation after brushing with menthol dentifrice; assay type: in vivo, human; design: key: 0 = no burning to 60 = highest intensity; 7.5 difference = significant; conditions: scale 0-60
Procedure: as §3
For EXAMPLE 6 (TABLES 8 and 9), a panel of 14 trained sensory experts evaluated the sensory profile experienced after brushing with the dentifrice sample formulations shown in TABLES 6 and 7 containing high levels of menthol followed by rinsing with water. Panelists brushed teeth with 1.5 grams of a test dentifrice (containing high menthol levels) or control (no menthol) for 36 seconds and then expectorated. The dentifrice sample formulations (control and high L-Menthol) are shown below in TABLE 6 (with peppermint flavor) and TABLE 7 (with spearmint flavor). The dentifrices were made using conventional methods and are shown below with component amounts in weight % of total composition. […]
For TABLE 10 all the Samples had the same formulation as Sample E from TABLE 6, except for the Control which lacked menthol. After brushing or mouthwash expectoration, panelists evaluated the burning sensation, assigning a number between 0 (no sensation) to 60 (highest intensity sensation). Evaluations were conducted at 5, 10, 20 and 30 minute time points, following expectoration. At each evaluation, panelists were instructed to breathe in through pursed lips and evaluate overall sensation. In this test, a numerical score of 7.5 indicates a significant user noticeable sensation. Differences less than 7.5, but greater than 5.0 indicate the trending of the data on a specific attribute.

[7] = antagonist 400 μM against 500 μM hydrogen peroxide
[8] = 2 Min 30 SEC After Expectoration, H2O2 mouthwash, antagonist levels as E48
[9] = 5 Min After Expectoration, H2O2 mouthwash, antagonist levels as E48
[10] = 10 Min After Expectoration, H2O2 mouthwash, antagonist levels as E48
[11] = 20 Min After Expectoration, H2O2 mouthwash, antagonist levels as E48
[12] = 30 Min After Expectoration, H2O2 mouthwash, antagonist levels as E48
[13] = After Expectoration, H2O2 mouthwash, antagonist levels as E48

## OO [H2O2, hydrogen peroxide]
Human TRPA1; H2O2 1 μM
  percent hydrogen peroxide activation of TRPA1 compared to control agonist: 1.4%
Human TRPA1; H2O2 10 μM
  percent hydrogen peroxide activation of TRPA1 compared to control agonist: 9.6%
Human TRPA1; H2O2 100 μM
  percent hydrogen peroxide activation of TRPA1 compared to control agonist: 91.4%
Human TRPA1; H2O2 200 μM alone, control of each Set 1-4
  Average Ca++ Counts: 5881.5 Counts and 8721.8 Counts and 10592.2 Counts and 7043.6 Counts
Human TRPA1; H2O2 200 μM
  percent hydrogen peroxide activation of TRPA1 compared to control agonist: 111.7%
Human TRPA1; H2O2 500 μM
  percent hydrogen peroxide activation of TRPA1 compared to control agonist: 129.1%
Human TRPA1; H2O2 1 mM
  percent hydrogen peroxide activation of TRPA1 compared to control agonist: 123.4%
Human TRPA1; H2O2 10 mM
  percent hydrogen peroxide activation of TRPA1 compared to control agonist: 101.3%
Human TRPA1; H2O2 100 mM
  percent hydrogen peroxide activation of TRPA1 compared to control agonist: 296.7%
Human TRPV1 [1]; H2O2 1 μM
  percent hydrogen peroxide activation of TRPV1 compared to control agonist: 1.51%
Human TRPV1 [1]; H2O2 10 μM
  percent hydrogen peroxide activation of TRPV1 compared to control agonist: 3.10%
Human TRPV1 [1]; H2O2 100 μM
  percent hydrogen peroxide activation of TRPV1 compared to control agonist: 17.45%
Human TRPV1 [1]; H2O2 200 μM
  percent hydrogen peroxide activation of TRPV1 compared to control agonist: 21.18%
Human TRPV1 [1]; H2O2 500 μM
  percent hydrogen peroxide activation of TRPV1 compared to control agonist: 30.21%
Human TRPV1 [1]; H2O2 1 mM
  percent hydrogen peroxide activation of TRPV1 compared to control agonist: 41.13%
Human TRPV1 [1]; H2O2 10 mM
  percent hydrogen peroxide activation of TRPV1 compared to control agonist: 62.81%
Human TRPV1 [1]; H2O2 100 mM
  percent hydrogen peroxide activation of TRPV1 compared to control agonist: 209.29%

## CCC(=O)OCCOc1ccccc1 [Phenoxyethyl Propionate]
Human TRPA1
  effect on TRPA1 receptor, in words (agonist / enhancer): TRPA1 agonists
Human TRPV1 [2]
  reduction of hydrogen peroxide activation of TRPV1, in words: reduce hydrogen peroxide activation of TRPV1
Human TRPV1 [2]; [7]
  inhibition at 400 µM: 60%
Human TRPV1 [2]; Dose 4000, 500 uM H2O2
  Ca++ counts: 737
Human TRPV1 [3]; Dose 4000, 350 nM Capsaicin
  Ca++ counts: 10922

## C=CCN=C=S [AITC, allyl isothiocyanate]
Human TRPA1; AITC 50 μM alone, each Set 1-4
  Average Ca++ Counts: 8322.5 Counts and 14138.2 Counts and 15213.0 Counts and 11209.0 Counts
Human TRPA1; control agonist AITC 50 μM
  Ca2+ Count, TRPA1: 12219 Count

## CC(C)C(=O)OCc1ccc2c(c1)OCO2 [Piperonyl Isobutyrate]
Human TRPA1
  effect on TRPA1 receptor, in words (agonist / enhancer): enhancer of TRPA1
Human TRPV1 [2]
  reduction of hydrogen peroxide activation of TRPV1, in words: reduces hydrogen peroxide activation of TRPV1
Human TRPV1 [2]; [7]
  inhibition at 400 µM: 63%
Human TRPV1 [2]; Dose 4000, 500 uM H2O2
  Ca++ counts: 682
Human TRPV1 [3]; Dose 4000, 350 nM Capsaicin
  Ca++ counts: 10804

## CCCCCC1=C(C)CCC1=O [Dihydrojasmone]
[4]; [8]
  Burning Sensation: 13.1
  Numbing Sensation: 6.9
[4]; [9]
  Burning Sensation: 8.9
  Numbing Sensation: 6.3
[4]; [10]
  Burning Sensation: 2.8
  Numbing Sensation: 0.8
[4]; [11]
  Burning Sensation: 0.8
  Numbing Sensation: 0.0
[4]; [12]
  Burning Sensation: 0.6
  Numbing Sensation: 0.0
[4]; [13]
  Burning Sensation: 16.9
  Numbing Sensation: 6.9
[4]; Initial in Mouth, hydrogen peroxide mouthwash (TABLE 11) with Apritone 200 ppm, Isobornyl Isobutyrate 100 ppm, Dihydrojasmone 6 ppm as named, 10 panelists
  Burning Sensation: 12.5
Human TRPV1 [2]; Dose 4000
  % inhibition of TRPV1 activation by 500 uM H2O2: 98%
Human TRPV1 [2]; [7]
  % Reduction of Hydrogen Peroxide TRPV1 Activation: 98%
Human TRPV1 [2]; Dose 4000, 500 uM H2O2
  Ca++ counts: 38
[5]; 1 ppm 1-propanethiol, 0.01% test compound
  Percent Thiol Reduction vs. Control: 79.0%
[5]; 1 ppm 1-propanethiol, 0.05% test compound
  Percent Thiol Reduction vs. Control: 92.1%
[5]; 1 ppm 1-propanethiol, 0.1% sodium lauryl sulfate, 1% test compound, headspace
  % Thiol Reduction: significantly or completely reduced sulfur production
[5]; 1 ppm 1-propanethiol, compound 0.01% and 0.05%
  thiol reduction, comparison in words: better reduction in thiol than delta damascone
[5]; 10 ppm 1-propanethiol, 0.01% test compound
  Percent Thiol Reduction vs. Control: 41.3%
[5]; 10 ppm 1-propanethiol, 0.05% test compound
  Percent Thiol Reduction vs. Control: 66.7%
[5]; 10 ppm 1-propanethiol, compound 0.05%
  thiol reduction, comparison in words: close to delta damascone's thiol reduction
[6]; 5 Min After Rinse, dentifrice Sample E (1% menthol) with antagonist levels as E42
  Burning Sensation Rating: 11.3
[6]; 10 Min After Rinse, dentifrice Sample E (1% menthol) with antagonist levels as E42
  Burning Sensation Rating: 2.5
[6]; 20 Min After Rinse, dentifrice Sample E (1% menthol) with antagonist levels as E42
  Burning Sensation Rating: 0.0
[6]; 30 Min After Rinse, dentifrice Sample E (1% menthol) with antagonist levels as E42
  Burning Sensation Rating: 0.0
[6]; After Expectoration, dentifrice Sample E (1% added menthol) with Apritone 200 ppm, Dihydrojasmone 6 ppm, Isobornyl Isobutyrate 100 ppm, α-heptyl-γ-valerolactone 100 ppm as named
  Burning Sensation Rating: 24.1
[6]; After Rinse, dentifrice Sample E (1% menthol) with antagonist levels as E42
  Burning Sensation Rating: 21.3
Human TRPV1 [3]; Dose 4000
  % inhibition of TRPV1 activation by 350 nM Capsaicin: 4%
Human TRPV1 [3]; Dose 4000, 350 nM Capsaicin
  Ca++ counts: 11397

## CC(=O)OC1CC2CCC1(C)C2(C)C (single isomer, unassigned; (-)) [(−)-Bornyl Acetate]
Human TRPA1
  effect on TRPA1 receptor, in words (agonist / enhancer): TRPA1 agonists
Human TRPV1 [2]
  reduction of hydrogen peroxide activation of TRPV1, in words: reduce hydrogen peroxide activation of TRPV1
Human TRPV1 [2]; antagonist 100 μM against 500 μM hydrogen peroxide
  inhibition at 100 µM: 53%
Human TRPV1 [2]; Dose 1000, 500 uM H2O2
  Ca++ counts: 877
Human TRPV1 [3]; Dose 1000, 350 nM Capsaicin
  Ca++ counts: 13976

## COc1cc(CNC(=O)CCCC/C=C/C(C)C)ccc1O [Capsaicin]
Human TRPV1 [1]; control agonist Capsaicin 350 nM
  Ca2+ Count, TRPV1: 16204 Count
